The values below come from ChEMBL document CHEMBL1697731, “Cheminformatics analysis of assertions mined from literature that describe drug-induced liver injury in different species” (Chem Res Toxicol, 2010).

Data set [1] concerns Hepatotoxicity. Briefly: Literature-mined compound from Fourches et al multi-species drug-induced liver injury (DILI) dataset, effect in non-rodents.
Data set [2] relates to Hepatotoxicity. The data set can be described thus: Literature-mined compound from Fourches et al multi-species drug-induced liver injury (DILI) dataset, effect in humans. The note with it: human.
Data set [3] relates to Hepatotoxicity. The data set can be described thus: Literature-mined compound from Fourches et al multi-species drug-induced liver injury (DILI) dataset, effect in rodents. The note with it: rodentia.

*1 amine or outer side, *2 acyl side, *3 side chain or, on linkers, in order; H or OH if unused. Where a SMILES comes first, the peptide text is derived from it. Bridges are numbered along the chain shown (N, C = ends). [ ]: non-standard residue; d: D form. The star is where a group is joined. hTyr(3S-OH,4S-OH,3'-OSO3H) = N[C@H](C(=O)O)[C@H](O)[C@@H](O)c1ccc(O)c(OS(=O)(=O)O)c1; Orn(4R-OH,5R-OH) = O=C([C@H](C[C@@H](O)[C@@H](O)N[*:3])N[*:1])[*:2]; Pro(3S-OH,4S-Me) = C[C@H]1CN[C@H](C(=O)O)[C@H]1O; X1 = CCCCCOc1ccc(-c2cc(-c3ccc(C(=O)*)cc3)no2)cc1; Gln(3R-OH) = NC(=O)C[C@@H](O)[C@H](N)C(=O)O; Hyp = O=C(O)[C@@H]1C[C@@H](O)CN1

Regarding `CN1CCN2c3ccccc3Cc3ccccc3C2C1` (stereo not given) [MIANSERIN], the figures for the Hepatotoxicity entry in the data set with Hepatotoxicity [1], with Hepatotoxicity [2] and in the data set with Hepatotoxicity [3] were “no drug-induced liver injury reported”, “drug-induced liver injury reported” and “drug-induced liver injury reported”, respectively.
For `CCCCCOc1ccc(-c2cc(-c3ccc(C(=O)N[C@H]4C[C@@H](O)[C@@H](O)NC(=O)[C@@H]5[C@@H](O)[C@@H](C)CN5C(=O)[C@H]([C@H](O)CC(N)=O)NC(=O)[C@H]([C@H](O)[C@@H](O)c5ccc(O)c(OS(=O)(=O)O)c5)NC(=O)[C@@H]5C[C@@H](O)CN5C(=O)[C@H]([C@@H](C)O)NC4=O)cc3)no2)cc1` [MICAFUNGIN] (X1-[Orn(4R-OH,5R-OH)]T[Hyp][hTyr(3S-OH,4S-OH,3'-OSO3H)][Gln(3R-OH)][Pro(3S-OH,4S-Me)]; lactam 1-C), the Hepatotoxicity entry with Hepatotoxicity [1] is reported as “no drug-induced liver injury reported”; in the data set on Hepatotoxicity [2], “drug-induced liver injury reported”; with Hepatotoxicity [3], “no drug-induced liver injury reported”.
As to `Clc1ccc(COC(Cn2ccnc2)c2ccc(Cl)cc2Cl)c(Cl)c1` (stereo not given) [MICONAZOLE], the Hepatotoxicity entry in the data set with Hepatotoxicity [1] is listed as “no drug-induced liver injury reported”; in the data set with Hepatotoxicity [2], “drug-induced liver injury reported”; in the data set with Hepatotoxicity [3], “drug-induced liver injury reported”.
Consider `Cc1ncc2n1-c1ccc(Cl)cc1C(c1ccccc1F)=NC2` [MIDAZOLAM], for which the Hepatotoxicity entry with Hepatotoxicity [1] is reported as “no drug-induced liver injury reported”; with Hepatotoxicity [2], “no drug-induced liver injury reported”; in the data set with Hepatotoxicity [3], “drug-induced liver injury reported”.
In the case of `CC#C[C@]1(O)CC[C@H]2[C@@H]3CCC4=CC(=O)CCC4=C3[C@@H](c3ccc(N(C)C)cc3)C[C@@]21C` [MIFEPRISTONE], the Hepatotoxicity result in the data set with Hepatotoxicity [1] is given as “no drug-induced liver injury reported”; with Hepatotoxicity [2] it was “no drug-induced liver injury reported”; in the data set on Hepatotoxicity [3] it was “drug-induced liver injury reported”.
With `CCCCCCCCCCCCCCCCOP(=O)([O-])OCC[N+](C)(C)C` [MILTEFOSINE], the Hepatotoxicity entry with Hepatotoxicity [1] is listed as “no drug-induced liver injury reported”; with Hepatotoxicity [2] it was “drug-induced liver injury reported”; in the data set with Hepatotoxicity [3], “no drug-induced liver injury reported”.
As to `CN(C)c1ccc(O)c2c1C[C@H]1C[C@H]3[C@H](N(C)C)C(O)=C(C(N)=O)C(=O)[C@@]3(O)C(O)=C1C2=O` [MINOCYCLINE], the Hepatotoxicity result in the data set with Hepatotoxicity [1] is “no drug-induced liver injury reported”; in the data set on Hepatotoxicity [2], “drug-induced liver injury reported”; in the data set with Hepatotoxicity [3] it was “drug-induced liver injury reported”.
As to `Nc1cc(N2CCCCC2)nc(N)[n+]1[O-]` [MINOXIDIL], the Hepatotoxicity result was “no drug-induced liver injury reported” in the data set with Hepatotoxicity [1], “drug-induced liver injury reported” in the data set with Hepatotoxicity [2] and “drug-induced liver injury reported” with Hepatotoxicity [3].
Take `CN1CCN2c3ncccc3Cc3ccccc3C2C1` (stereo not given) [MIRTAZAPINE]: the results for the Hepatotoxicity entry with Hepatotoxicity [1], in the data set on Hepatotoxicity [2] and in the data set with Hepatotoxicity [3] were “no drug-induced liver injury reported”, “drug-induced liver injury reported” and “no drug-induced liver injury reported”, respectively.
For `CCCCC(C)(O)C/C=C/[C@H]1[C@H](O)CC(=O)[C@@H]1CCCCCCC(=O)OC` (stereo not given in full) [MISOPROSTOL], the Hepatotoxicity entry in the data set with Hepatotoxicity [1] is listed as “drug-induced liver injury reported”; in the data set on Hepatotoxicity [2] it was “no drug-induced liver injury reported”; with Hepatotoxicity [3], “drug-induced liver injury reported”.
For `O=C(O)[C@H](CC(=O)N1C[C@H]2CCCC[C@H]2C1)Cc1ccccc1` [MITIGLINIDE], the Hepatotoxicity entry is “no drug-induced liver injury reported” with Hepatotoxicity [1], “no drug-induced liver injury reported” with Hepatotoxicity [2] and “drug-induced liver injury reported” in the data set with Hepatotoxicity [3].
Turning to `Clc1ccc(C(c2ccccc2Cl)C(Cl)Cl)cc1` (stereo not given) [MITOTANE], the Hepatotoxicity result with Hepatotoxicity [1] is given as “drug-induced liver injury reported”; in the data set on Hepatotoxicity [2], “drug-induced liver injury reported”; in the data set with Hepatotoxicity [3], “no drug-induced liver injury reported”.
Consider `O=C1c2c(O)ccc(O)c2C(=O)c2c(NCCNCCO)ccc(NCCNCCO)c21` [MITOXANTRONE], for which the Hepatotoxicity result in the data set on Hepatotoxicity [1] was “no drug-induced liver injury reported”; in the data set on Hepatotoxicity [2], “drug-induced liver injury reported”; in the data set with Hepatotoxicity [3], “drug-induced liver injury reported”.
Consider `CN(c1nccc(=O)[nH]1)C1CCN(c2nc3ccccc3n2Cc2ccc(F)cc2)CC1` [MIZOLASTINE], for which the Hepatotoxicity result is “no drug-induced liver injury reported” in the data set with Hepatotoxicity [1], “drug-induced liver injury reported” in the data set on Hepatotoxicity [2] and “no drug-induced liver injury reported” in the data set with Hepatotoxicity [3].
In the case of `NC(=O)C[S+]([O-])C(c1ccccc1)c1ccccc1` (stereo not given) [MODAFINIL], the Hepatotoxicity entry in the data set with Hepatotoxicity [1] is reported as “no drug-induced liver injury reported”; in the data set on Hepatotoxicity [2], “drug-induced liver injury reported”; in the data set with Hepatotoxicity [3], “no drug-induced liver injury reported”.
Consider `CCOC(=O)[N-]c1cn(N2CCOCC2)n[o+]1` [MOLSIDOMINE], for which the Hepatotoxicity result is listed as “no drug-induced liver injury reported” in the data set with Hepatotoxicity [1], “drug-induced liver injury reported” in the data set with Hepatotoxicity [2] and “drug-induced liver injury reported” in the data set with Hepatotoxicity [3].
In the case of `CC[C@@]1([C@H]2O[C@H]([C@H]3O[C@@](O)(CO)[C@H](C)C[C@@H]3C)C[C@H]2C)CC[C@H]([C@@]2(C)CC[C@]3(C[C@H](O)[C@@H](C)[C@@H]([C@H](C)[C@H](OC)[C@@H](C)C(=O)[O-])O3)O2)O1.[Na+]` [MONENSIN SODIUM], the figures for the Hepatotoxicity result in the data set on Hepatotoxicity [1], with Hepatotoxicity [2] and with Hepatotoxicity [3] were “no drug-induced liver injury reported”, “no drug-induced liver injury reported” and “drug-induced liver injury reported”, respectively.
For the compound `CC(C)(O)c1ccccc1CC[C@@H](SCC1(CC(=O)O)CC1)c1cccc(/C=C/c2ccc3ccc(Cl)cc3n2)c1` [MONTELUKAST], the Hepatotoxicity result with Hepatotoxicity [1] is listed as “no drug-induced liver injury reported”; in the data set on Hepatotoxicity [2] it was “drug-induced liver injury reported”; in the data set with Hepatotoxicity [3], “no drug-induced liver injury reported”.
Take `O=C(NCN1CCOCC1)c1cnccn1` [MORINAMIDE]: the Hepatotoxicity entry in the data set on Hepatotoxicity [1] is “no drug-induced liver injury reported”; in the data set with Hepatotoxicity [2], “drug-induced liver injury reported”; in the data set with Hepatotoxicity [3], “no drug-induced liver injury reported”.
For the compound `CN1CC[C@]23c4c5ccc(O)c4O[C@H]2[C@@H](O)C=C[C@H]3[C@H]1C5` [MORPHINE], the results for the Hepatotoxicity entry with Hepatotoxicity [1] (Liver), with Hepatotoxicity [2] (Liver) and with Hepatotoxicity [3] (Liver) were “no drug-induced liver injury reported”, “drug-induced liver injury reported” and “drug-induced liver injury reported”, respectively.
Regarding `CO[C@@]1(NC(=O)C(C(=O)O)c2ccc(O)cc2)C(=O)N2C(C(=O)O)=C(CSc3nnnn3C)CO[C@@H]21` (stereo not given in full) [MOXALACTAM], the Hepatotoxicity result was “no drug-induced liver injury reported” in the data set on Hepatotoxicity [1], “drug-induced liver injury reported” in the data set on Hepatotoxicity [2] and “no drug-induced liver injury reported” in the data set on Hepatotoxicity [3].
For `COc1c(N2C[C@@H]3CCCN[C@@H]3C2)c(F)cc2c(=O)c(C(=O)O)cn(C3CC3)c12` [MOXIFLOXACIN], the Hepatotoxicity entry with Hepatotoxicity [1] is given as “no drug-induced liver injury reported”; with Hepatotoxicity [2], “drug-induced liver injury reported”; with Hepatotoxicity [3], “no drug-induced liver injury reported”.
Consider `CC(=O)Oc1cc(C(C)C)c(OCCN(C)C)cc1C` [MOXISYLYTE], for which the values for the Hepatotoxicity entry with Hepatotoxicity [1], in the data set on Hepatotoxicity [2] and in the data set with Hepatotoxicity [3] were “no drug-induced liver injury reported”, “drug-induced liver injury reported” and “no drug-induced liver injury reported”, respectively.
Regarding `COc1nc(C)nc(Cl)c1N=C1NCCN1` [MOXONIDINE], the results for the Hepatotoxicity entry in the data set on Hepatotoxicity [1], in the data set with Hepatotoxicity [2] and in the data set with Hepatotoxicity [3] were “no drug-induced liver injury reported”, “no drug-induced liver injury reported” and “drug-induced liver injury reported”, respectively.
Consider `CC(c1ccc(Cl)c(Cl)c1)N1N=C(N)CC1=O` (stereo not given) [MUZOLIMINE], for which the Hepatotoxicity result in the data set on Hepatotoxicity [1] is “no drug-induced liver injury reported”; in the data set on Hepatotoxicity [2], “drug-induced liver injury reported”; in the data set with Hepatotoxicity [3], “no drug-induced liver injury reported”.
Take `COc1c(C)c2c(c(O)c1C/C=C(\C)CCC(=O)OCCN1CCOCC1)C(=O)OC2` [MYCOPHENOLATE MOFETIL]: the Hepatotoxicity result with Hepatotoxicity [1] was “no drug-induced liver injury reported”; with Hepatotoxicity [2], “drug-induced liver injury reported”; with Hepatotoxicity [3], “no drug-induced liver injury reported”.
`COc1c(C)c2c(c(O)c1C/C=C(\C)CCC(=O)O)C(=O)OC2` [MYCOPHENOLIC ACID]: the values for the Hepatotoxicity result in the data set on Hepatotoxicity [1], with Hepatotoxicity [2] and in the data set on Hepatotoxicity [3] were “no drug-induced liver injury reported”, “drug-induced liver injury reported” and “drug-induced liver injury reported”, respectively.
Regarding `COc1ccc2cc(CCC(C)=O)ccc2c1` [NABUMETONE], the Hepatotoxicity result with Hepatotoxicity [1] is given as “no drug-induced liver injury reported”; in the data set with Hepatotoxicity [2], “no drug-induced liver injury reported”; in the data set on Hepatotoxicity [3] it was “drug-induced liver injury reported”.
Consider `NC(=O)c1ccc[n+]([C@@H]2O[C@H](COP(=O)([O-])OP(=O)(O)OC[C@H]3O[C@@H](n4cnc5c(N)ncnc54)[C@H](O)[C@@H]3O)[C@@H](O)[C@H]2O)c1` [NADIDE], for which the Hepatotoxicity entry in the data set with Hepatotoxicity [1] is given as “no drug-induced liver injury reported”; in the data set with Hepatotoxicity [2], “no drug-induced liver injury reported”; in the data set with Hepatotoxicity [3], “drug-induced liver injury reported”.
`CC(C)(C)NCC(O)COc1cccc2c1CC(O)C(O)C2` (stereo not given) [NADOLOL]: the Hepatotoxicity result was “no drug-induced liver injury reported” with Hepatotoxicity [1], “drug-induced liver injury reported” in the data set on Hepatotoxicity [2] and “no drug-induced liver injury reported” with Hepatotoxicity [3].
